Like-named read-outs stand apart in the source and are kept apart here.
Key:
[1] = system: Key Grass and Sedge Weeds as well as Grass Crops; assay: Post-emergent Test II herbicidal activity (Table 16); type: in vivo; details: post-emergence, 336 h, 14 d; for pest or weed control at 35 g/ha: 35 g ai/ha; for pest or weed control at 70 g/ha: 70 g ai/ha; for pest or weed control at 140 g/ha: 140 g ai/ha
In short: (§1)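 Visual injury rating (0 = none, 100 = complete kill) taken 14 d after treatment, relative to untreated plants. Compounds in acetone/DMSO with crop oil concentrate and Triton X-155 were track-sprayed at 187 L/ha onto seedlings at the first-second true leaf stage.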

[2] = system: Key Broadleaf Weed and Crop Species; assay: Post-emergent Test II herbicidal activity (Table 15); type: in vivo; details: post-emergence, 336 h, 14 d; for pest or weed control at 35 g/ha: 35 g ai/ha; for pest or weed control at 70 g/ha: 70 g ai/ha; for pest or weed control at 140 g/ha: 140 g ai/ha
In short: as §1

[3] = Cyperus esculentus, yellow nutsedge (Cyperus esculentus), read-out: Visual Growth Reduction (%) 14 Days After Application, CYPES
[4] = Echinochloa crus-galli, barnyardgrass (Echinochloa crus-galli), read-out: Visual Growth Reduction (%) 14 Days After Application, ECHCG
[5] = Oryza sativa, rice (Oryza sativa), read-out: Visual Growth Reduction (%) 14 Days After Application, ORYSA
[6] = Setaria faberi, giant foxtail (Setaria faberi), read-out: Visual Growth Reduction (%) 14 Days After Application, SETFA
[7] = Triticum aestivum, wheat, spring (Triticum aestivum), read-out: Visual Growth Reduction (%) 14 Days After Application, TRZAS
[8] = Zea mays, maize, corn (Zea mays), read-out: Visual Growth Reduction (%) 14 Days After Application, ZEAMX
[9] = Abutilon theophrasti, velvetleaf (Abutilon theophrasti), read-out: Visual Growth Reduction (%) 14 Days After Application, ABUTH
[10] = Amaranthus retroflexus, redroot pigweed (Amaranthus retroflexus), read-out: Visual Growth Reduction (%) 14 Days After Application, AMARE
[11] = Brassica napus, oilseed rape, canola (Brassica napus), read-out: Visual Growth Reduction (%) 14 Days After Application, BRSNN
[12] = Chenopodium album, lambsquarters (Chenopodium album), read-out: Visual Growth Reduction (%) 14 Days After Application, CHEAL
[13] = Euphorbia heterophylla, wild poinsettia (Euphorbia heterophylla), read-out: Visual Growth Reduction (%) 14 Days After Application, EPHHL
[14] = Helianthus annuus, sunflower (Helianthus annuus), read-out: Visual Growth Reduction (%) 14 Days After Application, HELAN

| Compound | pest or weed control at 35 g/ha [1, 3] | pest or weed control at 70 g/ha [1, 3] | pest or weed control at 140 g/ha [1, 3] | pest or weed control at 35 g/ha [1, 4] | pest or weed control at 70 g/ha [1, 4] | pest or weed control at 140 g/ha [1, 4] | pest or weed control at 35 g/ha [1, 5] | pest or weed control at 70 g/ha [1, 5] | pest or weed control at 140 g/ha [1, 5] | pest or weed control at 35 g/ha [1, 6] | pest or weed control at 70 g/ha [1, 6] | pest or weed control at 140 g/ha [1, 6] | pest or weed control at 35 g/ha [1, 7] | pest or weed control at 70 g/ha [1, 7] | pest or weed control at 140 g/ha [1, 7] | pest or weed control at 35 g/ha [1, 8] | pest or weed control at 70 g/ha [1, 8] | pest or weed control at 140 g/ha [1, 8] | pest or weed control at 35 g/ha [2, 9] | pest or weed control at 70 g/ha [2, 9] | other results |
| --- | --- | --- | --- | --- | --- | --- | --- | --- | --- | --- | --- | --- | --- | --- | --- | --- | --- | --- | --- | --- | --- |
| COC(=O)c1nc(-c2cc3ccoc3cc2F)cc(N)c1Cl [Compound 2.04] | 0 to 29% | 0 to 29% | 30 to 44% | 60 to 74% | 95 to 100% | 95 to 100% | 0 to 29% | 0 to 29% | 0 to 29% | 60 to 74% | 75 to 84% | 85 to 94% | 0 to 29% | 30 to 44% | 45 to 59% | 60 to 74% | 75 to 84% | 85 to 94% | 75 to 84% | 85 to 94% | pest or weed control at 140 g/ha [2, 9]: 95 to 100%; pest or weed control at 35 g/ha [2, 10]: 95 to 100%; pest or weed control at 70 g/ha [2, 10]: 95 to 100%; pest or weed control at 140 g/ha [2, 10]: 95 to 100%; pest or weed control at 35 g/ha [2, 11]: 0 to 29%; pest or weed control at 70 g/ha [2, 11]: 0 to 29%; pest or weed control at 140 g/ha [2, 11]: 30 to 44%; pest or weed control at 35 g/ha [2, 12]: 95 to 100%; pest or weed control at 70 g/ha [2, 12]: 95 to 100%; pest or weed control at 140 g/ha [2, 12]: 95 to 100%; pest or weed control at 35 g/ha [2, 13]: 95 to 100%; pest or weed control at 70 g/ha [2, 13]: 95 to 100%; pest or weed control at 140 g/ha [2, 13]: 95 to 100%; pest or weed control at 35 g/ha [2, 14]: 0 to 29%; pest or weed control at 70 g/ha [2, 14]: 0 to 29%; pest or weed control at 140 g/ha [2, 14]: 30 to 44%; melting point: 98 °C |
| COC(=O)c1nc(-c2ccc3[nH]ccc3c2)c(F)c(N)c1Cl [Compound 1.02, Methyl 4-amino-3-chloro-5-fluoro-6-(1H-indol-5-yl)picolinate] | 0 to 29% | 0 to 29% | 0 to 29% | 0 to 29% | 0 to 29% | 45 to 59% | 0 to 29% | 0 to 29% | 0 to 29% | 0 to 29% | 0 to 29% | 0 to 29% | 0 to 29% | 0 to 29% | 0 to 29% | 0 to 29% | 0 to 29% | 0 to 29% | 0 to 29% | 0 to 29% | pest or weed control at 140 g/ha [2, 9]: 0 to 29%; pest or weed control at 70 g/ha [2, 10]: 85 to 94%; pest or weed control at 140 g/ha [2, 10]: 85 to 94%; pest or weed control at 35 g/ha [2, 11]: 0 to 29%; pest or weed control at 70 g/ha [2, 11]: 0 to 29%; pest or weed control at 140 g/ha [2, 11]: 0 to 29%; pest or weed control at 35 g/ha [2, 12]: 75 to 84%; pest or weed control at 70 g/ha [2, 12]: 85 to 94%; pest or weed control at 140 g/ha [2, 12]: 95 to 100%; pest or weed control at 35 g/ha [2, 13]: 45 to 59%; pest or weed control at 70 g/ha [2, 13]: 45 to 59%; pest or weed control at 140 g/ha [2, 13]: 60 to 74%; pest or weed control at 35 g/ha [2, 14]: 45 to 59%; pest or weed control at 70 g/ha [2, 14]: 60 to 74%; pest or weed control at 140 g/ha [2, 14]: 60 to 74%; melting point: 221 to 224 °C |

Reference: patent publication US20170050957A1, “4-AMINO-6-(HETEROCYCLIC)PICOLINATES AND 6-AMINO-2-(HETEROCYCLIC)PYRIMIDINE-4-CARBOXYLATES AND THEIR USE AS HERBICIDES” (Dow AgroSciences LLC, priority 2013, published 2017)
